{
  "source": "patent US20110281949A1",
  "about": "“METHODS AND COMPOSITIONS FOR TREATING NEURONAL DAMAGE AND MODULATING TRANSIENT RECEPTOR POTENTIAL CHANNELS” (priority 2008, published 2011)",
  "key": {"TRPL channels": {"biological_target": "T1, TRPL channels (Drosophila melanogaster, UniProt P48994)", "T1 sequence (P48994 1-1124)": "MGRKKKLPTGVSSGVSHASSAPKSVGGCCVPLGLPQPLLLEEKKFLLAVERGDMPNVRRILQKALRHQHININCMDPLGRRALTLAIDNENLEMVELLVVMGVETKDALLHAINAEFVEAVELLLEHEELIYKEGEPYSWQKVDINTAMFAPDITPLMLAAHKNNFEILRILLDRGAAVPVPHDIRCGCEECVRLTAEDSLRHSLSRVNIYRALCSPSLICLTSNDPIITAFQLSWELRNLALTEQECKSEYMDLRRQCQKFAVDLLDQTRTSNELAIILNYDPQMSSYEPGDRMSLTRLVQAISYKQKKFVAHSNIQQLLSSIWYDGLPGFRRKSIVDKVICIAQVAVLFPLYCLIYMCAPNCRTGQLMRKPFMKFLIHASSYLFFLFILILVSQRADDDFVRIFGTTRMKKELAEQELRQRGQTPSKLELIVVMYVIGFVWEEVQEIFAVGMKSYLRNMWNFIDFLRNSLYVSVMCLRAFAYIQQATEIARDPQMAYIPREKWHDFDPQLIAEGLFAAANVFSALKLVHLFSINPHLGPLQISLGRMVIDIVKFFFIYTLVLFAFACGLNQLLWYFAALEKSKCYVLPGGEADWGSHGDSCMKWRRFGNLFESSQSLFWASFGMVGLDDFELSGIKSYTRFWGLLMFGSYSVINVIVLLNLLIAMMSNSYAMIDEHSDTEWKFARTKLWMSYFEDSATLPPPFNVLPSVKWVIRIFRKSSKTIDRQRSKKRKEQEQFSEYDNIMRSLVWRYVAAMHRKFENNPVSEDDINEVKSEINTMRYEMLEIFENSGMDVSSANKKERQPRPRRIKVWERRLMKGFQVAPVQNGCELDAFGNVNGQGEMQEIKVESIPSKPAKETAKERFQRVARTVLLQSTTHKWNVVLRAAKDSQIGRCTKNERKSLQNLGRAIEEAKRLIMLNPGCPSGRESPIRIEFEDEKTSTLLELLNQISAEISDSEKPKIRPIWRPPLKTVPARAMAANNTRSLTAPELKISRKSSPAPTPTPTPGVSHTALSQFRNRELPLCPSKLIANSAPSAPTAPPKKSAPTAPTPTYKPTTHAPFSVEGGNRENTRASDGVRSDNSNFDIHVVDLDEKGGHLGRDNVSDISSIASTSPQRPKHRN", "assay": "Whole-cell patch clamp of TRPL channels expressed in S2 cells", "details": "for Effect on TRPL-mediated current: XIII 3 mM, XIV 1 mM, XII 2 mM, XV up to 5 mM, X 5 mM, XVI 5 mM, XI 10 mM; for TRPL Activation/Inhibition: TRPL expressed in S2 cells", "method": "Schneider 2 cells were grown in 25 cm^2 flasks at 25° C. in Schneider medium (Beit HaEmek biological industries, Israel) supplemented with 10% fetal bovine serum (FBS) and 1% pen-strep reagent.\n24 hours prior to the experiment, 500 μM CuSO4 was added to the medium of the S2 cells to induce expression of the channels. […] Currents were recorded at room temperature using borosilicate patch pipettes of 5-8 MΩ and an Axopatch 1D (Molecular Devices, Inc.) voltage-clamp amplifier. […] Currents were filtered using the 8-pole low pass Bessel filter of the patch-clamp amplifier at 5 kHz and sampled at 20 kHz. To measure I-V curves with minimal distortions, only cells with low (<10 MΩ) series resistance were used, and series resistance was compensated to ˜80%.\nFor S2 cells, the extracellular solution contained in mM: 150 NaCl, 5 KCl, 4 MgCl2, 10 TES, 25 proline, 5 alanine and 0.5 EGTA. The intracellular solution contained in mM: 130 K-gluconate, 10 TES, 2 MgCl2, 4 Mg-ATP and 0.4 Na-GTP. […] All solutions were titrated to pH 7.2. Cells were perfused via a BPS-8 valve control system (Scientific Instruments) at a rate of ˜30 chamber volumes per minute. Chemicals were applied via the perfusion system."}, "TRPV3": {"tested_on": "TRPV3", "details": "literature; cited from earlier work"}, "TRPM7": {"biological_target": "TRPM7 (Mus musculus, UniProt Q923J1)", "sequence (Q923J1 whole entry)": "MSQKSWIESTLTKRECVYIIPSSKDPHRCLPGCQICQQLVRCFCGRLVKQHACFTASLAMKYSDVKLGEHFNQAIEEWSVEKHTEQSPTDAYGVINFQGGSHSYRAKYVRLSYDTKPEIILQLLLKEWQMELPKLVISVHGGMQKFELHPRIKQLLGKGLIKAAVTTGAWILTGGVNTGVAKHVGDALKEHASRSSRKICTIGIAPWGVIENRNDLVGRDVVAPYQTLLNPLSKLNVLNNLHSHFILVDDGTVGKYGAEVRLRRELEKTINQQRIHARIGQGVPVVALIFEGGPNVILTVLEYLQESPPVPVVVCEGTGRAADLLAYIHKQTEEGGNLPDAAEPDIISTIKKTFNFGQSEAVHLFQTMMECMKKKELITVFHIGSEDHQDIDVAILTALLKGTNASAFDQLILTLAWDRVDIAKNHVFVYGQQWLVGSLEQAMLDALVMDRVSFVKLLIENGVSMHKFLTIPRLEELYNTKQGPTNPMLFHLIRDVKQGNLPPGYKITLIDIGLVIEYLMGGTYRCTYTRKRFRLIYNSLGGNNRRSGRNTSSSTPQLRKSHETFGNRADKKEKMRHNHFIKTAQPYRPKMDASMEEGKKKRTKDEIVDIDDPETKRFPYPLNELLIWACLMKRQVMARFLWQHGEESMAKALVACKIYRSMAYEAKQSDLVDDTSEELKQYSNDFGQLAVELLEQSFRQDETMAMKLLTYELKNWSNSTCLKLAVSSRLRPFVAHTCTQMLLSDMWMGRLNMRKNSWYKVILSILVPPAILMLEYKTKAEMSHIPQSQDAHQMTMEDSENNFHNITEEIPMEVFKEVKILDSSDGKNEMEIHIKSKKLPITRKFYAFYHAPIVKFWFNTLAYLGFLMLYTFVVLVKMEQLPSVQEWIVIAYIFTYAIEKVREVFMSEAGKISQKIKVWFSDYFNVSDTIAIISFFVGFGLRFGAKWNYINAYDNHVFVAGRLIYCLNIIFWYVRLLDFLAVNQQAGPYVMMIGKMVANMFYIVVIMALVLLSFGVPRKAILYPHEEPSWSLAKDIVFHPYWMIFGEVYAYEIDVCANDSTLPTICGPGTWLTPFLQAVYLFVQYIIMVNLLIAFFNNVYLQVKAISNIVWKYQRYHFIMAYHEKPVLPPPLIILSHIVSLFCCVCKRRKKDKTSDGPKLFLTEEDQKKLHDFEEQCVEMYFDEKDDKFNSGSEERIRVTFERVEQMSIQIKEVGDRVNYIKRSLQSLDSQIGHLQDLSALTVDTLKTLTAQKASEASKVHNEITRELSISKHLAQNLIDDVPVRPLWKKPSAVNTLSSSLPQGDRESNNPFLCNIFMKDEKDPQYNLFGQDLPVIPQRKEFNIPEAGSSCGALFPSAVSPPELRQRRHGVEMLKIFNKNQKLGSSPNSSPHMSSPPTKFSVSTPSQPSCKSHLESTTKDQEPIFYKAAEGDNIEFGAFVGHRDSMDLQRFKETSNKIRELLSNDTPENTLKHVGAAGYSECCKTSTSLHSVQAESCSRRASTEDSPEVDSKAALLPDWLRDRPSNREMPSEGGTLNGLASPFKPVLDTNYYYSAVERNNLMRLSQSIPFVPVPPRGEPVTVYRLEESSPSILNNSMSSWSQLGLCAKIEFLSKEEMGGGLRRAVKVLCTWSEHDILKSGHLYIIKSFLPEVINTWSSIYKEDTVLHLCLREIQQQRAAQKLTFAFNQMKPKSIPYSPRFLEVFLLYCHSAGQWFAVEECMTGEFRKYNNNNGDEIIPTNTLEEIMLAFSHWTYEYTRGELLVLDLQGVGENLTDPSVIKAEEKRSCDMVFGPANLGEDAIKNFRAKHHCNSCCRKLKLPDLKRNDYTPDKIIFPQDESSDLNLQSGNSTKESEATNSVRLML", "assay": "Whole-cell patch clamp of TRPM7 expressed in HEK cells", "type": "cell-based, mammalian", "set-up": "expressed in transfected cells; host or cells: HEK / HEK293 cells, transient, TransIT reagent (Mirus)", "details": "HEK cells expressing TRPM7; IX 500 μM", "method": "Human embryonic kidney (HEK) cells were grown in 25 cm^2 flasks at 37° C. in Dulbecco's Modified Eagle's Medium (DMEM) (Beit Haemek biological industries, Israel) supplemented with 10% FBS, 1% pen-strep and 1% L-Glutamine. TRPM7 (GenBank accession number NM—021450; SEQ ID No: 19; provided by David Clapham) and pIRES-eGFP were transiently expressed using TransIT™ reagent (Mirus).\nCells were seeded on polylysine-coated plates at a confluence of 25%, 24-72 hours prior to the experiment. […] Whole-cell, patch-clamp recordings were performed as described (Parnas et al, 2007). Currents were recorded at room temperature using borosilicate patch pipettes of 5-8 MΩ and an Axopatch 1D (Molecular Devices, Inc.) voltage-clamp amplifier. Voltage-clamp pulses were generated and data captured using a Digidata 1322A interfaced to a computer running the pClamp 9.2 software (Axon Instruments, Inc.). Currents were filtered using the 8-pole low pass Bessel filter of the patch-clamp amplifier at 5 kHz and sampled at 20 kHz. To measure I-V curves with minimal distortions, only cells with low (<10 MΩ) series resistance were used, and series resistance was compensated to ˜80%.\nFor HEK cells, the extracellular solution contained in mM: 140 NaCl, 2.8 KCl, 2 CaCl2, 1 MgCl2, HEPES and 10 glucose. The intracellular solution contained in mM: 140 Cs-Aspartate, 8 NaCl, 10 EGTA and 10 HEPES. All solutions were titrated to pH 7.2. Cells were perfused via a BPS-8 valve control system (Scientific Instruments) at a rate of ˜30 chamber volumes per minute. Chemicals were applied via the perfusion system."}, "TRPA1": {"biological_target": "TRPA1 (Homo sapiens, UniProt O75762)", "sequence (O75762 whole entry, species assumed)": "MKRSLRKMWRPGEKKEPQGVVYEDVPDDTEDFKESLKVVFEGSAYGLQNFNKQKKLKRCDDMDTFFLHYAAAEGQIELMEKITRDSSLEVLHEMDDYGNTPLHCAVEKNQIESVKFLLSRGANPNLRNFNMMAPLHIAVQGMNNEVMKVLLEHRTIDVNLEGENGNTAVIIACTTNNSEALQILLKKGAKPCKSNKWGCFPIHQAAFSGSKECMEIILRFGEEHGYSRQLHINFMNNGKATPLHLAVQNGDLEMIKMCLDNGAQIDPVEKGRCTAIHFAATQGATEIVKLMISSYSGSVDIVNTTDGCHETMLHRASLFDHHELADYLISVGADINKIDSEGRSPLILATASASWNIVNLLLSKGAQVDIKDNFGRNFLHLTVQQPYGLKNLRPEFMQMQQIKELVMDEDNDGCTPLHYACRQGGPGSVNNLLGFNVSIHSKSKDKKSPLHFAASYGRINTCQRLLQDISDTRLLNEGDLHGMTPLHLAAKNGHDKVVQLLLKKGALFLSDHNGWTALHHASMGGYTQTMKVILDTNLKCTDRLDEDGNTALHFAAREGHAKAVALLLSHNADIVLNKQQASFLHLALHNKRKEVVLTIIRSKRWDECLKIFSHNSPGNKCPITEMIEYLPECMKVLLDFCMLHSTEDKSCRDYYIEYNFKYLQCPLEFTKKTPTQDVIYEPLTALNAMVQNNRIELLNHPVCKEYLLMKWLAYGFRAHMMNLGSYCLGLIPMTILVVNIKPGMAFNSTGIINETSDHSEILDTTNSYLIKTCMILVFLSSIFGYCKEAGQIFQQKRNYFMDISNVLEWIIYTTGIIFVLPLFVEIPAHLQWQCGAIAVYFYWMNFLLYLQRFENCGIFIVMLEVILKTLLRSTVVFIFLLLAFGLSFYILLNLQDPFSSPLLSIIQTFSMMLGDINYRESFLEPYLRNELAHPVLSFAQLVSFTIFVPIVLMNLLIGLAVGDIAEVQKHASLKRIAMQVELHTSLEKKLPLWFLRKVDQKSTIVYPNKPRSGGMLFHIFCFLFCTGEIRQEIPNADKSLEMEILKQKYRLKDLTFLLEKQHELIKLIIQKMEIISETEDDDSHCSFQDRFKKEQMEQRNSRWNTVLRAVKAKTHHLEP", "details": "irreversible, by covalent modification; cited from earlier work"}},
  "note": "Entries after “also recorded” stand apart in the source; their conditions may differ. Like-named read-outs stand apart in the source and are kept apart here.",
  "data": [
    {"smiles": "C=C(C)[C@@H]1CC=C(C)C(O)C1", "note": "(stereo partly drawn) [Compound XVI, (5R)-5-Isopropenyl-2-methyl-2-cyclohexenol]", "values": [
      {"measurement": "IC50", "setting": "TRPL channels", "result": "4.22 ± 0.4", "unit": "mM"},
      {"measurement": "Effect on TRPL-mediated current", "setting": "TRPL channels; S2 cells, IX 500 μM, XVII 5 mM", "result": "large decrease in the TRPL-dependent current"},
      {"measurement": "TRPL Activation/Inhibition", "setting": "TRPL channels", "result": "Inhibition"}
    ]},
    {"smiles": "C=CCc1ccc(O)c(OC)c1", "note": "[Compound XIII, 2-Methoxy-4-(2-propenyl)phenol]", "values": [
      {"measurement": "TRPV3 activation", "setting": "TRPV3", "result": "activate TRPV3"},
      {"measurement": "Effect on TRPL-mediated current", "setting": "TRPL channels; S2 cells, IX 500 μM, XVII 5 mM", "result": "inhibited TRPL; also recorded: large decrease in the TRPL-dependent current"},
      {"measurement": "TRPL Activation/Inhibition", "setting": "TRPL channels", "result": "Inhibition"}
    ]},
    {"smiles": "CC1(C)C2CCC1(C)C(O)C2", "note": "[Compound XVII, endo-(1R)-1,7,7-Trimethylbicyclo[2.2.1]heptan-2-ol]", "values": [
      {"measurement": "TRPV3 activation", "setting": "TRPV3", "result": "believed to activate TRPV3"},
      {"measurement": "Reversibility of effect on TRPL channel", "setting": "TRPL channels; S2 cells", "result": "completely reversible rapid activation"},
      {"measurement": "Effect on current when TRPL channels were not expressed (control)", "setting": "TRPL channels; S2 cells without TRPL expression, IX 500 μM, XVII 5 mM", "result": "no effect"},
      {"measurement": "Effect on TRPL-mediated current", "setting": "TRPL channels; S2 cells, IX 500 μM, XVII 5 mM", "result": "activated the TRPL channel; also recorded: activated the TRPL-mediated current"},
      {"measurement": "TRPL Activation/Inhibition", "setting": "TRPL channels", "result": "Activation"},
      {"measurement": "Effect on TRPM7-mediated current", "setting": "TRPM7", "result": "inhibit TRPM7"}
    ]},
    {"smiles": "CC(C)[C@@H]1CC[C@@H](C)C[C@H]1O", "note": "[Compound X, 2-Isopropyl-5-methylcyclohexanol]", "values": [
      {"measurement": "IC50", "setting": "TRPL channels", "result": "1.81 ± 0.13", "unit": "mM"},
      {"measurement": "Effect on TRPL-mediated current", "setting": "TRPL channels; S2 cells, IX 500 μM, XVII 5 mM", "result": "large decrease in the TRPL-dependent current"},
      {"measurement": "TRPL Activation/Inhibition", "setting": "TRPL channels", "result": "Inhibition"},
      {"measurement": "Effect on TRPM7-mediated current", "setting": "TRPM7", "result": "inhibit TRPM7"}
    ]},
    {"smiles": "Cc1ccc(C(C)C)c(O)c1", "note": "[Compound XIV, 2-Isopropyl-5-methylphenol]", "values": [
      {"measurement": "TRPV3 activation", "setting": "TRPV3", "result": "activate TRPV3"},
      {"measurement": "Effect on TRPL-mediated current", "setting": "TRPL channels; S2 cells, IX 500 μM, XVII 5 mM", "result": "inhibited TRPL; also recorded: large decrease in the TRPL-dependent current"},
      {"measurement": "TRPL Activation/Inhibition", "setting": "TRPL channels", "result": "Inhibition"}
    ]},
    {"smiles": "O=C(O)/C=C/c1ccc(O)c(O)c1", "note": "[Compound XV, 3,4-Dihydroxycinnamic acid]", "values": [
      {"measurement": "Effect on TRPL-mediated current", "setting": "TRPL channels; S2 cells, IX 500 μM, XVII 5 mM", "result": "did not block TRPL"},
      {"measurement": "TRPL Activation/Inhibition", "setting": "TRPL channels", "result": "No effect"}
    ]},
    {"smiles": "O=C/C=C/c1ccccc1", "note": "[Compound XII, trans-3-Phenyl-2-propenal]", "values": [
      {"measurement": "TRPA1 activation", "setting": "TRPA1", "result": "activated"},
      {"measurement": "Reversibility of effect on TRPL channel", "setting": "TRPL channels; S2 cells", "result": "reversible"},
      {"measurement": "Effect on TRPL-mediated current", "setting": "TRPL channels; S2 cells, IX 500 μM, XVII 5 mM", "result": "inhibited TRPL activity; also recorded: decreased the TRPL-mediated current"},
      {"measurement": "TRPL Activation/Inhibition", "setting": "TRPL channels", "result": "Inhibition"},
      {"measurement": "IC50", "setting": "TRPL channels; read-out: IC50 of TRPL inhibition, S2 cells, whole-cell patch clamp", "result": "1.6 ± 0.3", "unit": "mM"},
      {"measurement": "Effect on TRPM7-mediated current", "setting": "TRPM7", "result": "inhibit TRPM7"}
    ]},
    {"smiles": "CC12CCC(CC1=O)C2(C)C", "note": "(stereo not drawn) [Compound XI, 1,7,7-Trimethylbicyclo[2.2.1]heptan-2-one]", "values": [
      {"measurement": "TRPV3 activation", "setting": "TRPV3", "result": "believed to activate TRPV3"},
      {"measurement": "Effect on TRPL-mediated current", "setting": "TRPL channels; S2 cells, IX 500 μM, XVII 5 mM", "result": "activated the TRPL channel"},
      {"measurement": "TRPL Activation/Inhibition", "setting": "TRPL channels", "result": "Activation"}
    ]}
  ]
}
